Laboratory results taken from patent publication US12239643B2, “Therapeutic agent for inflammatory diseases, autoimmune diseases, fibrotic diseases, and cancer diseases” (MEIJI SEIKA PHARMA CO., LTD., priority 2018, dated 2025).

tested on: PDE4; assay: Evaluation of PDE4 inhibitory activity, scintillation proximity assay; assay type: biochemical; conditions: scintillation proximity assay; class symbols of Evaluation 1; read-out: PDE4 Inhibitory Activity (concentration for the inhibition rate of 50%, IC50), Evaluation 1
Outline: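 IC50 was derived from inhibition curves, referenced to an enzyme-free blank and a DMSO-only control. Compound, PDE4 preparation and tritiated cAMP reacted 120 min at RT in Tris-HCl buffer (pH 7.4) with MgCl2, EGTA and BSA; YSi-SPA beads with ZnSO4 bound product before scintillation counting.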

SMILES	IC50
OC(c1ccc(-c2nccs2)c2oc(N3CC4CC(C3)N4)nc12)C(F)(F)F (stereo not drawn) [Example 121, 1-(2-(3,6-Diazabicyclo[3.1.1]heptan-3-yl)-7-(thiazol-2-yl)benzo[d]oxazol-4-yl)-2,2,2-trifluoroethan-1-ol]	< 0.1 µM
CCOC(=O)c1cc(-n2cccn2)c2oc(N3CC4CCC(C3)N4)nc2c1 [Example 90, Ethyl 2-(3,8-diazabicyclo[3.2.1]octan-3-yl)-7-(1H-pyrazol-1-yl)benzo[d]oxazole-5-carboxylate]	0.1 to 1 µM
COC(c1ccc(-c2nccs2)c2oc(N3CC4CC(C3)N4)nc12)C(F)(F)F (stereo not drawn) [Example 122, 2-(3,6-Diazabicyclo[3.1.1]heptan-3-yl)-7-(thiazol-2-yl)-4-(2,2,2-trifluoro-1-methoxyethyl)benzo[d]oxazole]	< 0.1 µM
CC(O)(c1ccc(-c2nccs2)c2oc(N3CC4CC(C3)N4)nc12)C(F)F (stereo not drawn) [Example 126, 2-(2-(3,6-Diazabicyclo[3.1.1]heptan-3-yl)-7-(thiazol-2-yl)benzo[d]oxazol-4-yl)-1,1-difluoropropan-2-ol]	< 0.1 µM
FC(F)(F)Oc1c(Cl)cc(-c2nccs2)c2oc(N3CC4CCC(C3)N4)nc12 [Example 1, 2-(3,8-Diazabicyclo[3.2.1]octan-3-yl)-5-chloro-7-(thiazol-2-yl)-4-(trifluoromethoxy)benzo[d]oxazole]	< 0.1 µM
CCOC(=O)c1cc(-c2nccs2)c2oc(N3CC4COCC(C3)N4)nc2c1 [Example 88, Ethyl 2-(3-oxa-7,9-diazabicyclo[3.3.1]nonan-7-yl)-7-(thiazol-2-yl)benzo[d]oxazole-5-carboxylate]	0.1 to 1 µM
OC(c1cc(-c2nccs2)c2oc(N3CC4CCC(C3)N4)nc2c1)C(F)(F)F (stereo not drawn) [Example 138, 1-(2-(3,8-Diazabicyclo[3.2.1]octan-3-yl)-7-(thiazol-2-yl)benzo[d]oxazol-5-yl)-2,2,2-trifluoroethan-1-ol]	< 0.1 µM
O=C(O)COc1cc(-c2nccs2)c2oc(N3CC4CCC(C3)N4)nc2c1 [Example 74, 2-((2-(3,8-Diazabicyclo[3.2.1]octan-3-yl)-7-(thiazol-2-yl)benzo[d]oxazol-5-yl)oxy)acetic acid]	< 0.1 µM
NS(=O)(=O)c1cc(-c2nccs2)c2oc(N3CC4CCC(C3)N4)nc2c1 [Example 57, 2-(3,8-Diazabicyclo[3.2.1]octan-3-yl)-7-(thiazol-2-yl)benzo[d]oxazole-5-sulfonamide]	< 0.1 µM
CC(=O)Nc1ccc(-c2nccs2)c2oc(N3CC4CCCC(C3)N4)nc12 [Example 34, N-(2-(3,9-Diazabicyclo[3.3.1]nonan-3-yl)-7-(thiazol-2-yl)benzo[d]oxazol-4-yl)acetamide]	< 0.1 µM
O=C(c1ccc(-c2nccs2)c2oc(N3CC4CCC(C3)N4)nc12)N1CCCCC1 [Example 117, (2-(3,8-Diazabicyclo[3.2.1]octan-3-yl)-7-(thiazol-2-yl)benzo[d]oxazol-4-yl)(piperidin-1-yl)methanone]	< 0.1 µM

same assay, conditions: scintillation proximity assay; read-out: PDE4 Inhibitory Activity (Evaluation 1; concentration for the inhibition rate of 50%)

SMILES	IC50
c1csc(-c2ccc(C3CCC3)c3nc(N4CC5CC(C4)N5)oc23)n1 [Example 414, 2-(3,6-Diazabicyclo[3.1.1]heptan-3-yl)-4-cyclobutyl-7-(thiazol-2-yl)benzo[d]oxazole]	< 0.1 µM
OC(c1cc(-c2cscn2)c2oc(N3CC4CC(C3)N4)nc2c1OC(F)(F)F)C(F)F (stereo not drawn) [Example 300, 1-(2-(3,6-Diazabicyclo[3.1.1]heptan-3-yl)-7-(thiazol-4-yl)-4-(trifluoromethoxy)benzo[d]oxazol-5-yl)-2,2-difluoroethan-1-ol]	< 0.1 µM
CN(C)S(=O)(=O)c1ccc(-c2nccs2)c2oc(N3CC4CC(C3)N4)nc12 [Example 388, 2-(3,6-Diazabicyclo[3.1.1]heptan-3-yl)-N,N-dimethyl-7-(thiazol-2-yl)benzo[d]oxazole-4-sulfonamide]	< 0.1 µM
OC(c1cc(-c2nccs2)c2oc(N3CC4CC(C3)N4)nc2c1OC(F)(F)F)C(F)F (stereo not drawn) [Example 293, 1-(2-(3,6-Diazabicyclo[3.1.1]heptan-3-yl)-7-(thiazol-2-yl)-4-(trifluoromethoxy)benzo[d]oxazol-5-yl)-2,2-difluoroethan-1-ol]	< 0.1 µM
